In patent publication US7629318B2, “Immunosuppressant compounds, methods and uses related thereto” (priority 2002, dated 2009):
Where “and” joins values, the source holds several entries; their conditions need not be identical. Equal entries are not always repeated. Where two headings read alike, the source gives them in different places. Numbered stars: 1 amine (or outer) side, 2 acyl side, 3 side chain; on linkers, the order of the positions; unused ones are H or OH. Square brackets hold non-standard residues; d marks the D form. Peptide text beside a SMILES is read from it. * marks the point of attachment. ξ: configuration not given here. Gly(1-amidinopiperidin-4-yl) = N=C(N)N1CCC([C@H](N)C(=O)O)CC1; X1 = CC(C)c1oc([C@H](CO)N[*:1])nc1C(=O)[*:2]; Pro(3R-Ph) = O=C(O)[C@H]1NCC[C@@H]1c1ccccc1; Tic = O=C(O)[C@@H]1Cc2ccccc2CN1; Cha = N[C@@H](CC1CCCCC1)C(=O)O; NHPhenethyl = c1ccc(CCN*)cc1; NMe(benzyl) = CN(Cc1ccccc1)*; ξDisc = O=C(O)C1NCc2ccccc21; Nle = CCCC[C@H](N)C(=O)O; X2 = OCCOCCN(Cc1ccccc1)*; NHBn = c1ccc(CN*)cc1

What was measured:
[1] = target: DR4Dw14 (DRA1*0101 DRB1*0404) (Homo sapiens, UniProt P01903+P01911, A100R/A169T/F76Y/I96L/K127E/L162R/M171V/N62H/P40V/Q125Y/R42H/S133A/S149N/S66Y/V209L/W38E); experiment: Competitive binding to MHC-II protein DR4Dw14; details: 0404; read-out: Protein binding IC50 (nM) 0404
Procedure, shortened: (§1)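 Each MHC-II allele incubated with compound 16 hours at room temperature in duplicate; controls lacked compound, or both compound and MHC-II. Complexes captured 2 h at 4 °C, bound biotinylated peptide detected via europium-streptavidin and DELFIA enhancement, time-resolved fluorescence read at ex 340/em 613 (615) nm.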

[2] = target: Cathepsin B1 (EC 3.4.22.1 from bovine spleen) (Bos taurus, UniProt P07688); details: Cathepsin B, 4 h
[3] = Stability of compounds in rat blood plasma; assay type: in vitro ADME
Procedure, shortened: (§2)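 Compounds at 5 μM final in rat, mouse or human plasma, incubated at 37 °C and sampled at 0, 6 and 24 h. Proteins precipitated with acetonitrile and the supernatant dried and reconstituted in 50% acetonitrile/0.1% TFA. PBS controls run for unstable compounds.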

[4] = target: DR1 (DRA1*0101 DRB1*0101) (Homo sapiens, UniProt P01903+P01911, A100R/D57E/F55L/F60I/F76Y/I96L/L162R/M171V/P40L/Q125E/R42F/V115G/Y59C); experiment: Competitive binding to MHC-II protein DR1; details: Protein binding IC50 (nM) 0101, 0101
Procedure, shortened: as §1

[5] = target: DR4Dw4 (DRA1*0101 DRB1*0401) (Homo sapiens, UniProt P01903+P01911, A100K/A169T/F76Y/I96L/K127E/L162R/M171V/N62H/P40V/Q125Y/R42H/S133A/S149N/S66Y/V115G/V209L/W38E); experiment: Competitive binding to MHC-II protein DR4Dw4
Procedure, shortened: as §1

[6] = tested on: T-cell proliferation, DR14-LN; details: for Immunsupressive assays DR14-LN (Max) % Inhibition: maximal inhibition; for IC50: read-out: Immunsupressive assays DR14-LN (IC50)
[7] = target: Cathepsin D (EC 3.4.23.5 from bovine spleen) (Bos taurus, UniProt P80209)
[8] = Stability of compounds in human blood plasma; assay type: in vitro ADME
Procedure, shortened: as §2

SMILES	IC50 [1] [nM]	Stability (Arbitrary units) Cath B 4 h [2]	Stability (Arbitrary units) Rat 6 h [3] [Arbitrary units]	Stability (Arbitrary units) Rat 24 h [3] [Arbitrary units]	IC50 [4] [nM]	IC50 [5] [nM]	Immunsupressive assays DR14-LN (Max) % Inhibition [6] [%]	IC50 [6] [nM]	Stability (Arbitrary units) Cath D 4 h [7] [Arbitrary units]	Stability (Arbitrary units) Human 6 h [8] [Arbitrary units]	Stability (Arbitrary units) Human 24 h [8] [Arbitrary units]	stability (arbitrary units) in rat plasma ([3]; after 24 hours, compared to the Arg-containing equivalent)	Stability (Arbitrary units) Rat 24 h ([3]; rat plasma, 24 h) [Arbitrary units]	Stability (Arbitrary units) Human 6 h ([8]; human plasma, 6 h) [Arbitrary units]
CSCC[C@H](NC(=O)[C@@H]1Cc2ccccc2CN1C(=O)[C@H](CCCNC(=N)N)NC(=O)[C@H](CC1CCCCC1)NC(C)=O)C(=O)N1CC[C@H](c2ccccc2)[C@H]1C(N)=O [Compound P31, Ac-Cha-Arg-Tic-Met-βPhPro-NH2] (Ac-[Cha]R[Tic]M[Pro(3R-Ph)]-NH2)	850	102 Arbitrary units	42	5	290	280	89	98000	95	93	86			
CCCC[C@H](NC(=O)[C@@H]1Cc2ccccc2CN1C(=O)[C@@H](NC(=O)[C@H](CC1CCCCC1)NC(C)=O)C1CCN(C(=N)N)CC1)C(=O)N1CC[C@H](c2ccccc2)[C@H]1C(=O)N[C@@H](CO)c1nc(C(=O)N(C)C)c(C(C)C)o1 [Compound P53, Ac-Cha-Gpg-Tic-Nle-βPhPro-[S(oxaz)L]-NMe2] (Ac-[Cha][Gly(1-amidinopiperidin-4-yl)][Tic][Nle][Pro(3R-Ph)][X1]-NMe2)	180	97 Arbitrary units	114	108	340	410	101	32000	99	110	122			
CCCC[C@H](NC(=O)[C@@H]1Cc2ccccc2CN1C(=O)[C@@H](NC(=O)[C@H](CC1CCCCC1)NC(C)=O)C1CCN(C(=N)N)CC1)C(=O)NCCc1ccccc1 [Compound P69, Ac-Cha-Gpg-Tic-Nle-N(H)CH2CH2Ph] (Ac-[Cha][Gly(1-amidinopiperidin-4-yl)][Tic][Nle]-NHPhenethyl)	4500	92 Arbitrary units	41	42	690	3600	107	23000	100	105	93	improved stability		
CCCC[C@H](NC(=O)[C@@H]1Cc2ccccc2CN1C(=O)[C@@H](NC(=O)[C@H](CC1CCCCC1)NC(C)=O)C1CCN(C(=N)N)CC1)C(=O)NCc1ccccc1 [Compound P68, Ac-Cha-Gpg-Tic-Nle-N(H)Bn] (Ac-[Cha][Gly(1-amidinopiperidin-4-yl)][Tic][Nle]-NHBn)	2000	52 Arbitrary units	7	0	600	2100	105	17000	105	85	39			
CSCC[C@H](NC(=O)[C@@H]1Cc2ccccc2CN1C(=O)[C@@H](NC(=O)[C@H](CC1CCCCC1)NC(C)=O)C1CCN(C(=N)N)CC1)C(=O)N1CC[C@H](c2ccccc2)[C@H]1C(=O)N[C@@H](CO)c1nc(C(=O)N(C)C)c(C(C)C)o1 [Compound P60, Ac-Cha-Gpg-Tic-Met-βPhPro-[S(oxaz)L]-NMe2] (Ac-[Cha][Gly(1-amidinopiperidin-4-yl)][Tic]M[Pro(3R-Ph)][X1]-NMe2)	190	88 Arbitrary units and 98 Arbitrary units	134	124	250	230	98	41000	108		120			
CCCC[C@H](NC(=O)[C@@H]1Cc2ccccc2CN1C(=O)[C@H](CCCNC(=N)N)NC(=O)[C@H](CC1CCCCC1)NC(C)=O)C(=O)N1CC[C@H](c2ccccc2)[C@H]1C(=O)N[C@@H](CO)c1nc(C(=O)N(C)C)c(C(C)C)o1 [Compound P51, Ac-Cha-Arg-Tic-Nle-βPhPro-[S(oxaz)L]-NMe2] (Ac-[Cha]R[Tic][Nle][Pro(3R-Ph)][X1]-NMe2)	210	103 Arbitrary units	81	60	400	670	99	52000	103	119	129			
CSCC[C@H](NC(=O)C1c2ccccc2CN1C(=O)[C@@H](NC(=O)[C@H](CC1CCCCC1)NC(C)=O)C1CCN(C(=N)N)CC1)C(=O)N1CC[C@H](c2ccccc2)[C@H]1C(=O)N[C@@H](CO)c1nc(C(=O)N(C)C)c(C(C)C)o1 (stereo partly drawn) [Compound P41-1, Ac-Cha-Gpg-Disc-Met-βPhPro-[S(oxaz)L]-NMe2] (Ac-[Cha][Gly(1-amidinopiperidin-4-yl)][ξDisc]M[Pro(3R-Ph)][X1]-NMe2)	110	104 Arbitrary units	91		160	200	98	25000	103	59	115		103	
CCCC[C@H](NC(=O)C1c2ccccc2CN1C(=O)[C@H](CCCNC(=N)N)NC(=O)[C@H](CC1CCCCC1)NC(C)=O)C(=O)N(C)Cc1ccccc1 (stereo partly drawn) [Compound P72-1, Ac-Cha-Arg-Disc-Nle-N(Me)Bn] (Ac-[Cha]R[ξDisc][Nle]-{NMe(benzyl)})	1700	98 Arbitrary units	80	67	1200	5200	95	29000	101	99	99			
CCCC[C@H](NC(=O)[C@@H]1Cc2ccccc2CN1C(=O)[C@@H](NC(=O)[C@H](CC1CCCCC1)NC(C)=O)C1CCN(C(=N)N)CC1)C(=O)N(CCOCCO)Cc1ccccc1 [Compound P101, Ac-Cha-Gpg-Tic-Nle-N(Bn)CH2CH2OCH2CH2OH] (Ac-[Cha][Gly(1-amidinopiperidin-4-yl)][Tic][Nle]-X2)	650	100 Arbitrary units	73	81	500	1500	100	46000	106		107			106
CCCC[C@H](NC(=O)C1c2ccccc2CN1C(=O)[C@@H](NC(=O)[C@H](CC1CCCCC1)NC(C)=O)C1CCN(C(=N)N)CC1)C(=O)N1CC[C@H](c2ccccc2)[C@H]1C(=O)N[C@@H](CO)c1nc(C(=O)N(C)C)c(C(C)C)o1 (stereo partly drawn) [Compound P81-1] (Ac-[Cha][Gly(1-amidinopiperidin-4-yl)][ξDisc][Nle][Pro(3R-Ph)][X1]-NMe2)	90	105 Arbitrary units	151	112	220	260		43000	106	151	162			
